For data set [1], the system named is Jurkat cells. As to the kind of experiment: Cell surface disulfide bond reduction: free sulfhydryl groups detected with iodoacetylbiotin and FITC-avidin. It is filed as cell-based, human. The following applies: 1 mM phosphine, 1 hour, relative to cells exposed to iodoacetylbiotin alone, FIG. 9. As for the experimental part: To satisfy the requirement of chemical orthogonality, both participants in the reaction may not engage functional groups endogenous to cells. Triarylphosphines are mild reducing agents, which raises the possibility of disulfide bond reduction as an undesirable side reaction. We addressed this issue by incubating Jurkat cells with triarylphosphine, an intermediate in the synthesis of 47, and quantifying the appearance of free sulfhydryl groups on the cell surface with iodoacetylbiotin and FITC-avidin (FIG. 9). Following incubation, cells were pelleted washed with PBS, and diluted to a volume of 240 μl. Samples were combined with 60 μl of a solution of iodoacetylbiotin (5 mM in PBS), After incubation in the dark at room temperature for 1.5 hrs, the cells were washed with buffer, stained with FITC-avidin, and analyzed by flow cytometry.
After 1 hour in the presence of 1 mM triarylphosphine, no detectable increase in free sulfhydryl groups was observed relative to cells exposed to iodoacetylbiotin alone (FIG. 9). In a positive control experiment, Jurkat cells were incubated with the trialkylphosphine TCEP (1 mM, 1 hour, room temperature), a commercial disulfide bond reducing agent. […] Therefore, triarylphosphines are essentially unreactive toward disulfide bonds under these conditions, rendering ligation with azides the predominant pathway for reactivity.

The subject of data set [2] is Jurkat cells. Nature of the data set: Growth of Jurkat cells incubated with ManAz for three days (cell counting). It is filed as cell-based, human. To be noted: ManAz at a range of concentrations, ManNAc as negative control, FIG. 1. As for the experimental part: Jurkat cell cultures. Cell cultures of Jurkat were maintained in RPMI 1640 media (Gibco Laboratories, Grand Island, N.Y.) supplemented with 5% fetal bovine serum (FBS, Hyclone, Logan, Utah), 50 units/mL of penicillin and 50 μg/mL of streptomycin (Mediatech, Hemdon, Va.), in a humidified 5% CO2 atmosphere at 37° C. Cell densities were determined using a Coulter Counter-Z2 (Coulter, Miami, Fla.),
Treatment of cells with mannosamine derivatives. Cultures of Jurkat cells were seeded at a density of 1.25×10^5 cells/mL into 12-well tissue culture plates in a total volume of 2 mL of culture media. The appropriate amount of each sugar (1, 3, 20, 36, 37) in a solution of PBS was added and the cells were incubated for 3 d. Control wells containing no added sugar were also seeded with cells and incubated.
(§1) Toxicity was ascertained by incubating Jurkat cells, a human T-cell lymphoma cell line, with ManAz for three days at a range of concentrations, using the natural substrate ManNAc (1) as a negative control. Each experiment was performed in triplicate. The cells were counted to determine whether addition of 20 was inhibiting cell growth.

The test system of data set [3] is Jurkat cells. As to the kind of experiment: Propidium iodide assay, percentage of viable cells by flow cytometry. Type of data set: cell-based, human. The following applies: Jurkat cells after 3 days with ManAz, FIG. 2. The protocol: Flow cytometry. Flow cytometry analysis was performed on a Coulter EPICS® XL-MCL cytometer (Coulter, Miami, Fla.) using a 488 nm argon laser. At least 10^4 viable cells were analyzed from each sample. Dead cells were excluded from the analysis using forward/side scatter gating.
Propidium iodide assay. After growth in the presence of the appropriate sugars, cells were pelleted (3000×g, 2 min), washed twice with 1 mL avidin staining buffer (0.1% NaN3, 0.1% FBS in PBS, pH 7.4) and diluted to a volume of 300 μL. Immediately prior to flow cytometry analysis, 10 μL of propidium iodide solution (1 mM in PBS) was added to each sample.
as §1

A further data set deals with cell surface. As to the kind of experiment: Side-by-side comparison with the cell surface ketone reaction. Type of data set: cell-based. To be noted: same reagent concentrations. From the text:
This may reflect either a faster reaction at the cell surface, or more efficient metabolism of azidosugar 20 as compared to the ketosugar. The azide has a major advantage over the ketone in that its reactivity is unique in a cellular context due its abiotic nature. Ketones, by contrast, abound inside cells in the form of metabolites such as pyruvic acid and oxaloacetate. It should be noted that the modified Staudinger reaction is chemically orthogonal to ketone ligations and should allow tandem modification of cell surfaces with the two chemistries.

Data set [4] deals with Jurkat cells. Nature of the data set: Competition with ManLev metabolism: cell surface ketone detection with biotin hydrazide and FITC-avidin, flow cytometry. It is filed as cell-based, human. To be noted: 3 days, increasing concentrations of acetylated ManAz (Ac4MA) with acetylated ManLev (Ac4ML), FIG. 3.
Data set [5] deals with Jurkat cells. As to the kind of experiment: Cell surface azide expression: reaction with biotinylated phosphine, FITC-avidin staining, flow cytometry. Type of data set: cell-based, human.
A further data set has as its system HeLa cells. As to the kind of experiment: Cell surface azide expression and growth after the modified Staudinger reaction in HeLa cells.

Consider `O=C(O)CCP(CCC(=O)O)CCC(=O)O` [TCEP], for which, in the data set on Jurkat cells [1], the “free sulfhydryl groups on the cell surface” value is given as “dramatic increase in free cell-surface sulfhydryl groups”.

For the molecule `[N-]=[N+]=NCC(=O)N[C@@H]1C(O)O[C@H](CO)[C@@H](O)[C@@H]1O` (stereo partly drawn) [compound 20, N-azidoacetylmannosamine], in the data set with Jurkat cells [2], the “number of cells observed after 3 days of growth” value is recorded as “a decrease in the number of cells observed after 3 days of growth in a dose-dependent fashion”. Further, the “percentage of viable cells” value in the data set on Jurkat cells [3] was “No significant change in the percentage of viable cells”. Besides, in the data set on cell surface, the “fluorescence of azidosugar metabolism plus phosphine reaction versus ketosugar metabolism plus hydrazide reaction” value is recorded as “two-fold higher fluorescence”.

In the case of `CC(=O)OC[C@H]1OC(OC(C)=O)[C@@H](NC(=O)CN=[N+]=[N-])[C@@H](OC(C)=O)[C@@H]1OC(C)=O` (stereo partly drawn) [compound 36, 1,3,4,6-Tetra-O-acetyl-N-azidoacetylmannosamine], in the data set with Jurkat cells [4], the “fluorescence from ketone labeling (competition with acetylated ManLev)” value is “proportionately decreasing fluorescence”. Also, the “biotin moieties accumulated on the cell surface” value is given as “approximately 4.5 million” in the data set on Jurkat cells [5] (40 μM acetylated 3 for 3 days, then 2 mM compound 5 for 3 hours); “approximately 4.5 million” with Jurkat cells [5] (40 AM acetylated 20 for 3 days, then 2 mM compound 47 for 3 hours); “approximately 850,000 biotin moieties” with Jurkat cells [5] (acetylated 20 for 3 days, then 1 mM compound 47 for 1 hour, calibrated with biotinylated beads). Also, in the data set on Jurkat cells [5] (acetylated azidosugar 20 μM for 3 days, then compound 47 (1 mM in PBS, pH 7.4) 1 hr at room temperature, versus untreated cells, FIG. 5), the “fluorescence (biotin moieties on the cell surface, FITC-avidin)” value is recorded as “dramatic increase in fluorescence”. For the same molecule, the “growth rate after the modified Staudinger reaction” value in the data set with HeLa cells (HeLa cells cultured for an additional 3 days after the reaction) was “no change in growth rate”. Moreover, the “fluorescence after azidosugar incubation and phosphine reaction” value with HeLa cells (HeLa cells, compared with the Jurkat result) is “responded similarly”.

For tunicamycin [reference compound], the “fluorescence signal with tunicamycin added during azidosugar incubation” value in the data set on Jurkat cells [5] (tunicamycin present during incubation with the azidosugar) is on record as “reduced”.

The values are drawn from patent US7939626B2, “Chemoselective ligation” (The Regents of the University of California, priority 2000, dated 2011).
